In patent publication US11248234B2, “Herbicide-resistant hydroxyphenylpyruvate dioxygenases” (BASF SE, priority 2015, dated 2022):
Entries after “also recorded” stand apart in the source; their conditions may differ.

Key:
[1] = biological target: Scenedesmus Short HPPD (Seq ID: 4) (Tetradesmus obliquus, UniProt A0A383WMN4, DEL398-433/N195D); experiment: In vitro HPPD activity assay; assay type: biochemical; conditions: normalized on Arabidopsis wild-type HPPD (SEQ ID NO:42)
Experimental: (§1) HPPD produces homogentisic acid and CO2 from 4-hydroxyphenylpyruvate (4-HPP) and O2. The activity assay for HPPD is based on the analysis of homogentisic acid by reversed phase HPLC.
(§2) The assay mixture can contain 150 mM potassium phosphate buffer pH 7.0, 50 mM L-ascorbic acid, 100 μM Catalase (Sigma-Aldrich), 1 μM FeSO4 and 0.2 units of purified mutated HPPD enzyme in a total volume of 505 μl. 1 unit is defined as the amount of enzyme that is required to produce 1 nmol of HGA per minute at 20° C.
(§3) After a preincubation of 30 min the reaction is started by adding 4-HPP to a final concentration of 0.05 mM. The reaction is allowed to proceed for 45 min at room temperature. The reaction is stopped by the addition of 50 μl of 4.5 M phosphoric acid. The sample is filtered using a […] pore size PVDF filtration device.
(§4) 5 μl of the cleared sample is analyzed on an UPLC HSS T3 column (particle size 1.8 μm, dimensions 2.1×50 mm; Waters) by isocratic elution using 90% 20 mM NaH2PO4 pH 2.2, 10% methanol (v/v).
(§5) HGA is detected electrochemically at 750 mV (mode: DC; polarity: positive) and quantified by integrating peak areas (Empower software; Waters).
(§6) Inhibitors are dissolved in DMSO (dimethylsulfoxide) to a concentration of 0.5 mM. From this stock solution serial five-fold dilutions are prepared in DMSO, which are used in the assay. The respective inhibitor solution accounts for 1% of the assay volume. Thus, final inhibitor concentrations range from 5 μM to 320 pM, respectively. Activities are normalized by setting the uninhibited enzyme activity to 100%. IC50 values are calculated using non-linear regression.
(§7) Using methods which are described in the above examples or well known in the art, purified, recombinant mutated HPPD enzymes are characterized with respect to their kinetic properties and sensitivity towards HPPD inhibiting herbicides. Apparent michaelis constants (Km) and maximal reaction velocities (Vmax) are calculated by non-linear regression with the software GraphPad Prism 5 (GraphPad Software, La Jolla, USA) using a substrate inhibition model. Apparent kcat values are calculated from Vmax assuming 100% purity of the enzyme preparation. Weighted means (by standard error) of Km and IC50 values are calculated from at least three independent experiments. The Cheng-Prusoff equation for competitive inhibition (Cheng, Y. C.; Prusoff, W. H. Biochem Pharmacol 1973, 22, 3099-3108) is used to calculate dissociation constants (Ki).
(§8) Field performance of the HPPD enzyme, which is used as a herbicide tolerance trait may depend not only on its lack of sensitivity towards HPPD inhibiting herbicides but also on its activity. To assess the potential performance of a herbicide tolerance trait a tolerance index (TI) is calculated using the following formula: […]
(§9) Easy comparison and ranking of each trait is enabled by normalizing tolerance indexes on Arabidopsis wild-type HPPD.

[2] = biological target: Scenedesmus HPPD (Seq ID: 2) (Tetradesmus obliquus, UniProt A0A383WMN4, N195D); experiment: In vitro HPPD activity assay; assay type: biochemical; conditions: normalized on Arabidopsis wild-type HPPD (SEQ ID NO:42)
Sequence of Scenedesmus HPPD (Seq ID: 2) (A0A383WMN4 entry or part of it N195D): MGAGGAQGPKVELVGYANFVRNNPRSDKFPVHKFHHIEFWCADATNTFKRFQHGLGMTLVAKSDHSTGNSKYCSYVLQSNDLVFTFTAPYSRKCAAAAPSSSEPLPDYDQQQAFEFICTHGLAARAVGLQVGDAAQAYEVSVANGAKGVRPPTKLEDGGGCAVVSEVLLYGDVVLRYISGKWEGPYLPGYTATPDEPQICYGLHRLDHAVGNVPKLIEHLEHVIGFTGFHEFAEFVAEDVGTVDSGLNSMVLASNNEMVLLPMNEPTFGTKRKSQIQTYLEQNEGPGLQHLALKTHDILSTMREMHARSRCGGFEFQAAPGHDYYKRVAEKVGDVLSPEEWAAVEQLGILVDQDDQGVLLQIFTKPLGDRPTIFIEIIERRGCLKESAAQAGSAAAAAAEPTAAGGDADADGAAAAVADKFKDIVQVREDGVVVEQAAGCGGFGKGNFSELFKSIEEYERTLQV
Experimental: as §1, §2, §3, §4, §5, §6, §7, §8, §9

[3] = system: SoHPPD F39W, L367V, I375L (short); experiment: In vitro HPPD activity assay; assay type: biochemical, Scenedesmus obliquus; conditions: normalized on Arabidopsis wild-type HPPD (SEQ ID NO:42)
Experimental: as §1, §2, §3, §4, §5, §6, §7, §8, §9

[4] = system: SoHPPD Q317H, A318G, E345Q; experiment: In vitro HPPD activity assay; assay type: biochemical, Scenedesmus obliquus; conditions: normalized on Arabidopsis wild-type HPPD (SEQ ID NO:42)
Experimental: as §1, §2, §3, §4, §5, §6, §7, §8, §9

[5] = system: SoHPPD L367V, I375L (short); experiment: In vitro HPPD activity assay; assay type: biochemical, Scenedesmus obliquus; conditions: normalized on Arabidopsis wild-type HPPD (SEQ ID NO:42)
Experimental: as §1, §2, §3, §4, §5, §6, §7, §8, §9

SoHPPD H306K (short) = experiment: In vitro HPPD activity assay; assay type: biochemical, Scenedesmus obliquus; conditions: normalized on Arabidopsis wild-type HPPD (SEQ ID NO:42)
Experimental: as §1, §2, §3, §4, §5, §6, §7, §8, §9

SoHPPD A318R, L350M = experiment: In vitro HPPD activity assay; assay type: biochemical, Scenedesmus obliquus; conditions: normalized on Arabidopsis wild-type HPPD (SEQ ID NO:42)
Experimental: as §1, §2, §3, §4, §5, §6, §7, §8, §9

[6] = system: SoHPPD Q317H, A318G, E345Q (short); experiment: In vitro HPPD activity assay; assay type: biochemical, Scenedesmus obliquus; conditions: normalized on Arabidopsis wild-type HPPD (SEQ ID NO:42)
Experimental: as §1, §2, §3, §4, §5, §6, §7, §8, §9

SoHPPD L367V, I375L = experiment: In vitro HPPD activity assay; assay type: biochemical, Scenedesmus obliquus; conditions: normalized on Arabidopsis wild-type HPPD (SEQ ID NO:42)
Experimental: as §1, §2, §3, §4, §5, §6, §7, §8, §9

SoHPPD E379Q (short) = experiment: In vitro HPPD activity assay; assay type: biochemical, Scenedesmus obliquus; conditions: normalized on Arabidopsis wild-type HPPD (SEQ ID NO:42)
Experimental: as §1, §2, §3, §4, §5, §6, §7, §8, §9

SoHPPD E345Q (short) = experiment: In vitro HPPD activity assay; assay type: biochemical, Scenedesmus obliquus; conditions: normalized on Arabidopsis wild-type HPPD (SEQ ID NO:42)
Experimental: as §1, §2, §3, §4, §5, §6, §7, §8, §9

SoHPPD F363I (short) = experiment: In vitro HPPD activity assay; assay type: biochemical, Scenedesmus obliquus; conditions: normalized on Arabidopsis wild-type HPPD (SEQ ID NO:42)
Experimental: as §1, §2, §3, §4, §5, §6, §7, §8, §9

SoHPPD Q317M (short) = experiment: In vitro HPPD activity assay; assay type: biochemical, Scenedesmus obliquus; conditions: normalized on Arabidopsis wild-type HPPD (SEQ ID NO:42)
Experimental: as §1, §2, §3, §4, §5, §6, §7, §8, §9

SoHPPD F363I = experiment: In vitro HPPD activity assay; assay type: biochemical, Scenedesmus obliquus; conditions: normalized on Arabidopsis wild-type HPPD (SEQ ID NO:42)
Experimental: as §1, §2, §3, §4, §5, §6, §7, §8, §9

[7] = system: SoHPPD A318R, L350M (short); experiment: In vitro HPPD activity assay; assay type: biochemical, Scenedesmus obliquus; conditions: normalized on Arabidopsis wild-type HPPD (SEQ ID NO:42)
Experimental: as §1, §2, §3, §4, §5, §6, §7, §8, §9

SoHPPD Q317H (short) = experiment: In vitro HPPD activity assay; assay type: biochemical, Scenedesmus obliquus; conditions: normalized on Arabidopsis wild-type HPPD (SEQ ID NO:42)
Experimental: as §1, §2, §3, §4, §5, §6, §7, §8, §9

[8] = system: SoHPPD A318P, A319P (short); experiment: In vitro HPPD activity assay; assay type: biochemical, Scenedesmus obliquus; conditions: normalized on Arabidopsis wild-type HPPD (SEQ ID NO:42)
Experimental: as §1, §2, §3, §4, §5, §6, §7, §8, §9

SoHPPD I419V (short) = experiment: In vitro HPPD activity assay; assay type: biochemical, Scenedesmus obliquus; conditions: normalized on Arabidopsis wild-type HPPD (SEQ ID NO:42)
Experimental: as §1, §2, §3, §4, §5, §6, §7, §8, §9

[9] = system: SoHPPD K326E, E345Q (short); experiment: In vitro HPPD activity assay; assay type: biochemical, Scenedesmus obliquus; conditions: normalized on Arabidopsis wild-type HPPD (SEQ ID NO:42)
Experimental: as §1, §2, §3, §4, §5, §6, §7, §8, §9

SoHPPD Q317H = experiment: In vitro HPPD activity assay; assay type: biochemical, Scenedesmus obliquus; conditions: normalized on Arabidopsis wild-type HPPD (SEQ ID NO:42)
Experimental: as §1, §2, §3, §4, §5, §6, §7, §8, §9

SoHPPD I455V = experiment: In vitro HPPD activity assay; assay type: biochemical, Scenedesmus obliquus; conditions: normalized on Arabidopsis wild-type HPPD (SEQ ID NO:42)
Experimental: as §1, §2, §3, §4, §5, §6, §7, §8, §9

SoHPPD V251A (short) = experiment: In vitro HPPD activity assay; assay type: biochemical, Scenedesmus obliquus; conditions: normalized on Arabidopsis wild-type HPPD (SEQ ID NO:42)
Experimental: as §1, §2, §3, §4, §5, §6, §7, §8, §9

[10] = biological target: T1, Arabidopsis HPPD (Seq ID: 42) (Arabidopsis thaliana, UniProt P93836); experiment: In vitro HPPD activity assay (homogentisic acid by HPLC); assay type: biochemical; conditions: benchmark enzyme; normalized on Arabidopsis wild-type HPPD
T1 construct: His6; made in house; host or cells: E. coli BL21 (DE3)
T1 sequence (P93836 1-445): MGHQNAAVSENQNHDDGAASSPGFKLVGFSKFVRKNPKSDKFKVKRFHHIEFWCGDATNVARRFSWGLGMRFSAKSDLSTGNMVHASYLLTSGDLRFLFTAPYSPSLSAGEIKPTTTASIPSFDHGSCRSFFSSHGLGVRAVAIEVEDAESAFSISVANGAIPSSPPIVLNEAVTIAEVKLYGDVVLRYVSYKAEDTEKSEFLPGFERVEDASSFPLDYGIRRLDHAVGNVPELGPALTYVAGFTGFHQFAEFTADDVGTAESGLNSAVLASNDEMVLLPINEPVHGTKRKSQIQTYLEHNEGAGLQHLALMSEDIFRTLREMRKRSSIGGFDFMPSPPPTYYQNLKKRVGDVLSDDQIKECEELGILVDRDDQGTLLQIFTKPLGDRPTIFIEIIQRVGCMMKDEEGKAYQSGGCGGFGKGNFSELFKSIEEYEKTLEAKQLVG
Experimental: as §1, §2, §3, §4, §5
as §6, with “Thus, final inhibitor concentrations range from 5 μM to 320 pM, respectively.” left out
as §7, with “Apparent kcat values are calculated from Vmax assuming 100% purity of the enzyme preparation.” left out, “experiments.” for “experiments. The Cheng-Prusoff equation for competitive inhibition (Cheng, Y. C.; Prusoff, W. H. Biochem Pharmacol 1973, 22, 3099-3108) is used to calculate dissociation constants (Ki).”
as §8, §9

Sequence of Scenedesmus Short HPPD (Seq ID: 4) (A0A383WMN4 entry or part of it N195D/DEL398-433): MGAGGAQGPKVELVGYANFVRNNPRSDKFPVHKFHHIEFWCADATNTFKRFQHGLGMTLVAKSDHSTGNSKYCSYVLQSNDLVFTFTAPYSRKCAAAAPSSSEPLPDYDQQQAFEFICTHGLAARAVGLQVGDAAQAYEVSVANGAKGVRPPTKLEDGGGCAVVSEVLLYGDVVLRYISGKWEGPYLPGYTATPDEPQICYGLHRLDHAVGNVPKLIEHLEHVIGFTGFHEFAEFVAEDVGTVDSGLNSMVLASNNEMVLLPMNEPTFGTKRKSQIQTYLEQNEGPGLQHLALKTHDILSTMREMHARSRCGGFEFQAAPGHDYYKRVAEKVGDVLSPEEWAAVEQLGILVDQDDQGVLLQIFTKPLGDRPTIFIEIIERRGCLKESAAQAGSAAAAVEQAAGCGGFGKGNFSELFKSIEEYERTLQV

CC[S+]([O-])c1c(Cl)cc(F)c(C(=O)Nc2nnnn2C)c1Cl (centres unmarked) [Inhibitor 9, 2,4-dichloro-3-ethylsulfinyl-6-fluoro-N-(1-methyltetrazol-5-yl)benzamide]
TI (normalized tolerance index) [1]: 1.2 | TI (normalized tolerance index) [2]: 0.1 | TI (normalized tolerance index) [3]: 0.2 | TI (normalized tolerance index) [4]: 0.1 | TI (normalized tolerance index) [5]: 0.4 | TI (normalized tolerance index) (SoHPPD H306K (short)): 0.2 | TI (normalized tolerance index) (SoHPPD A318R, L350M): 0.2 | TI (normalized tolerance index) [6]: 0.9 | TI (normalized tolerance index) (SoHPPD L367V, I375L): 0.1 | TI (normalized tolerance index) (SoHPPD E379Q (short)): 0.2 | TI (normalized tolerance index) (SoHPPD E345Q (short)): 0.2 | TI (normalized tolerance index) (SoHPPD F363I (short)): not inhibited; also recorded: no inhi- | TI (normalized tolerance index) (SoHPPD Q317M (short)): 1.1 | TI (normalized tolerance index) (SoHPPD F363I): 2,7 | TI (normalized tolerance index) [7]: 1.2 | TI (normalized tolerance index) (SoHPPD Q317H (short)): 0.7 | TI (normalized tolerance index) [8]: 0.7 | TI (normalized tolerance index) (SoHPPD I419V (short)): 0.3 | TI (normalized tolerance index) [9]: 0.1 | TI (normalized tolerance index) (SoHPPD Q317H): 0.1 | TI (normalized tolerance index) (SoHPPD I455V): 0.4 | TI (normalized tolerance index) (SoHPPD V251A (short)): 0.1 | TI (normalized tolerance index) [10]: 1.0
